The text below walks through data of patent publication US7253138B2, “Corrosion and gas hydrate inhibitors having improved water solubility and increased biodegradability” (Clariant Produkte (Deutschland) GmbH, priority 2003, dated 2007).

A short description of series [1]: LPR test (corrosion inhibition, test conditions similar to ASTM D 2776). As for the experimental part:
The products were also tested in the LPR test (test conditions similar to ASTM D 2776).

Series [2] in a line: Shell wheel test (corrosion inhibition). The note with it: salt water/petroleum mixture (9:1.5% NaCl solution, pH 3.5 with acetic acid), 40 rpm, 70° C., 24 hours; 50 ppm of a 40% solution of the inhibitor; from mass reduction vs blank. As for the experimental part: The compounds according to the invention were tested as corrosion inhibitors in the Shell wheel test. Coupons of carbon steel (DIN 1.1203 having 15 cm^2 surface area) were immersed in a salt water/petroleum mixture (9:1.5% NaCl solution, adjusted to pH 3.5 using acetic acid) and subjected to this medium at a rotation rate of 40 rpm at 70° C. for 24 hours. The dosage of the inhibitor was 50 ppm of a 40% solution of the inhibitor. The protection values were calculated from the mass reduction of the coupons, based on a blank value.
In the table which follows, “comparison” refers to a commercial soya fatty acid amidopropyl-N,N-dimethylammonium carboxymethyl betaine described by EP-B-0 446 616 (prior art corrosion inhibitor).

The nature of a further series: Agitation foam method. Type of series: physicochemical. The note with it: 50 ml of a 3% aqueous solution in demineralized water, agitated 20 times within 10 sec in closed 100 ml cylinder. As for the experimental part:
The foam properties were tested with the agitation foam method. To this end, 50 ml of a 3% aqueous solution of the appropriate corrosion inhibitor in demineralized water were agitated in a closed 100 ml measuring cylinder 20 times within 10 sec. On completion of the agitation, the foaming behavior was assessed using the total volume of the solution (foam height) and the foam decomposition time (time until attainment of the starting volume of 50 ml).

As to “Dodecenyl-/tetradecenylsuccinimido-N,N-dimethylpropylammonium N-methylcarboxyl betaine [Betaine from example 7]”, in series [1], the “Protection after 10 min” value came out at 72.5%, the “Protection after 30 min” value is 92.0% and the “Protection after 60 min” value worked out at 98.1%. Besides, the “ø Protection %” value in series [2] is 84.9%.
With “Pentapropylenesuccinimido-N,N-dimethylpropylammonium N-methylcarboxyl betaine [Betaine from example 9]”, in series [1], the “Protection after 10 min” value was found to be 77.9%, the “Protection after 30 min” value is on record as 94.0% and the “Protection after 60 min” value was determined as 99.8%. In addition, the Foaming behavior entry in “Agitation foam method” is on record as “Weakly foaming”. Further, the “ø Protection %” value in series [2] is 90.4%.
The matching figures for “Polyisobutenylsuccinimido-N,N-dimethylpropylammonium N-methyl-carboxyl betaine [Betaine from example 10]”: 79.1%, 92.3%, 99.2%, “Weakly foaming” and 90.1%.
The matching figures for “Polyisobutenylsuccinimido-N,N-dimethylpropylammonium N-methyl-carboxyl betaine [Betaine from example 11]”: 61.9%, 70.6%, 80.6%, “Weakly foaming” and 80.6%.
As for “Polyisobutenylsuccinimido-N,N-dimethylpropylammonium N-methyl-carboxyl betaine [Betaine from example 12]”, in series [1], the “Protection after 10 min” value amounted to 70.0%, the “Protection after 30 min” value was 79.4% and the “Protection after 60 min” value was 86.3%. For the same substance, the “ø Protection %” value in series [2] stood at 82.7%.
For the substance “Tetrapropylenesuccinimido-N,N-dimethylpropylammonium N-methylcarboxyl betaine [Betaine from example 8]”, in series [1], the “Protection after 10 min” value is reported as 74.0%, the “Protection after 30 min” value is recorded as 81.3% and the “Protection after 60 min” value was 84.9%. Further, in series [2], the “ø Protection %” value came out at 84.0%.
Take “soya fatty acid amidopropyl-N,N-dimethylammonium carboxymethyl betaine [Comparison, reference compound]”: in series [1], the “Protection after 10 min” value came out at 45.9%, the “Protection after 30 min” value is 59.2% and the “Protection after 60 min” value is reported as 64.2%. The Foaming behavior entry in the series “Agitation foam method” was “Strongly foaming”. Also, in series [2], the “ø Protection %” value is on record as 75.4%.
